Measured values reported in patent EP0055702B1, “Antithrombotic treatment” (priority 1980, dated 1982).
Like-named read-outs stand apart in the source and are kept apart here.

Assays:
[1] = tested on: human plasma; experiment: Thrombin Time, Example 4; format: biochemical; details: Control 12.00
Text: (§1) The evaluation procedure used is that described in "Human Blood Coagulation, Haemostasis and Thrombosis", edited by Rosemary Biggs, published by Blackwell Scientific Publications, Oxford, England (2nd Edition), pages 670-705, 1976. […]

[2] = PTT of coded and various agents, Example 6; format: biochemical; details: Table V, coded agents 0.5 mg/ml; Control 43.38
Text: (§2) A variety of agents were coded and evaluated under a code designation. Among these compounds, thiouracil, mercaptosuccinic acid, thiosemicarbazide, phenothiazine and sodium thiosulphate were included, so as to compare sodium bisulphite with certain compounds mentioned in USP 4,148,855.
(§3) After determination of PT and PTT values, the coded compounds were decoded.
(§4) The results are shown in Table V, where mean values of 5 replications in each case are reported. […] This procedure was repeated with some additional compounds on two different days using a different control on each day.

[3] = tested on: blood; experiment: Storage of human blood samples with added sodium bisulphite solution; details: about 4 cc blood plus about 10 drops of 10 weight percent solution; about 2) years at ambient temperatures
Procedure: Samples of about 4 cc each of blood were prepared. To each of these was added about 10 drops of a 10 weight percent solution of sodium bisulphite in distilled water. Each sample was then sealed into a glass vial.

[4] = molecular target: T1, F X (Homo sapiens, UniProt P00742); experiment: Factor X assay, Example 4; format: biochemical; details: for F X: Control 78
T1 construct: from tissue; host or cells: human plasma
T1 sequence (P00742 41-488): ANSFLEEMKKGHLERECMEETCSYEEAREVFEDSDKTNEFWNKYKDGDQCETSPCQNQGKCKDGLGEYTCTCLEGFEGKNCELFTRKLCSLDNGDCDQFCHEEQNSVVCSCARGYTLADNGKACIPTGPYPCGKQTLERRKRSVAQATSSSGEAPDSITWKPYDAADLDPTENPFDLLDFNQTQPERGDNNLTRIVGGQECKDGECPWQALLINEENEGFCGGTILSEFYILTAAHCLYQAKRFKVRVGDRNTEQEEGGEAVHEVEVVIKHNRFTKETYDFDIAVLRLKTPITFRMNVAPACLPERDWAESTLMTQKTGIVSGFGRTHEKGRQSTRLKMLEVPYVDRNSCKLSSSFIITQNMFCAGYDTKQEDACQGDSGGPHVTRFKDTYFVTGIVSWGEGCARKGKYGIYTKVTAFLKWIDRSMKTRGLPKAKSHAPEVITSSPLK
Text: as §1

[5] = tested on: human plasma; experiment: Blood coagulation factors by standard procedures (Biggs), human plasma; format: biochemical; details: 5 mg/ml
Procedure: The effect of U.S.P. grade sodium bisulphite on blood coagulation factors was evaluated by standard procedures (Biggs) and the results are shown in Table III below.
The effect is directly proportional to dose.

[6] = molecular target: T2, Factor V (Homo sapiens, UniProt P12259); experiment: Factor V assay, Example 4; format: biochemical; details: Control 75
T2 construct: from tissue; host or cells: human plasma
T2 sequence (P12259 29-2224): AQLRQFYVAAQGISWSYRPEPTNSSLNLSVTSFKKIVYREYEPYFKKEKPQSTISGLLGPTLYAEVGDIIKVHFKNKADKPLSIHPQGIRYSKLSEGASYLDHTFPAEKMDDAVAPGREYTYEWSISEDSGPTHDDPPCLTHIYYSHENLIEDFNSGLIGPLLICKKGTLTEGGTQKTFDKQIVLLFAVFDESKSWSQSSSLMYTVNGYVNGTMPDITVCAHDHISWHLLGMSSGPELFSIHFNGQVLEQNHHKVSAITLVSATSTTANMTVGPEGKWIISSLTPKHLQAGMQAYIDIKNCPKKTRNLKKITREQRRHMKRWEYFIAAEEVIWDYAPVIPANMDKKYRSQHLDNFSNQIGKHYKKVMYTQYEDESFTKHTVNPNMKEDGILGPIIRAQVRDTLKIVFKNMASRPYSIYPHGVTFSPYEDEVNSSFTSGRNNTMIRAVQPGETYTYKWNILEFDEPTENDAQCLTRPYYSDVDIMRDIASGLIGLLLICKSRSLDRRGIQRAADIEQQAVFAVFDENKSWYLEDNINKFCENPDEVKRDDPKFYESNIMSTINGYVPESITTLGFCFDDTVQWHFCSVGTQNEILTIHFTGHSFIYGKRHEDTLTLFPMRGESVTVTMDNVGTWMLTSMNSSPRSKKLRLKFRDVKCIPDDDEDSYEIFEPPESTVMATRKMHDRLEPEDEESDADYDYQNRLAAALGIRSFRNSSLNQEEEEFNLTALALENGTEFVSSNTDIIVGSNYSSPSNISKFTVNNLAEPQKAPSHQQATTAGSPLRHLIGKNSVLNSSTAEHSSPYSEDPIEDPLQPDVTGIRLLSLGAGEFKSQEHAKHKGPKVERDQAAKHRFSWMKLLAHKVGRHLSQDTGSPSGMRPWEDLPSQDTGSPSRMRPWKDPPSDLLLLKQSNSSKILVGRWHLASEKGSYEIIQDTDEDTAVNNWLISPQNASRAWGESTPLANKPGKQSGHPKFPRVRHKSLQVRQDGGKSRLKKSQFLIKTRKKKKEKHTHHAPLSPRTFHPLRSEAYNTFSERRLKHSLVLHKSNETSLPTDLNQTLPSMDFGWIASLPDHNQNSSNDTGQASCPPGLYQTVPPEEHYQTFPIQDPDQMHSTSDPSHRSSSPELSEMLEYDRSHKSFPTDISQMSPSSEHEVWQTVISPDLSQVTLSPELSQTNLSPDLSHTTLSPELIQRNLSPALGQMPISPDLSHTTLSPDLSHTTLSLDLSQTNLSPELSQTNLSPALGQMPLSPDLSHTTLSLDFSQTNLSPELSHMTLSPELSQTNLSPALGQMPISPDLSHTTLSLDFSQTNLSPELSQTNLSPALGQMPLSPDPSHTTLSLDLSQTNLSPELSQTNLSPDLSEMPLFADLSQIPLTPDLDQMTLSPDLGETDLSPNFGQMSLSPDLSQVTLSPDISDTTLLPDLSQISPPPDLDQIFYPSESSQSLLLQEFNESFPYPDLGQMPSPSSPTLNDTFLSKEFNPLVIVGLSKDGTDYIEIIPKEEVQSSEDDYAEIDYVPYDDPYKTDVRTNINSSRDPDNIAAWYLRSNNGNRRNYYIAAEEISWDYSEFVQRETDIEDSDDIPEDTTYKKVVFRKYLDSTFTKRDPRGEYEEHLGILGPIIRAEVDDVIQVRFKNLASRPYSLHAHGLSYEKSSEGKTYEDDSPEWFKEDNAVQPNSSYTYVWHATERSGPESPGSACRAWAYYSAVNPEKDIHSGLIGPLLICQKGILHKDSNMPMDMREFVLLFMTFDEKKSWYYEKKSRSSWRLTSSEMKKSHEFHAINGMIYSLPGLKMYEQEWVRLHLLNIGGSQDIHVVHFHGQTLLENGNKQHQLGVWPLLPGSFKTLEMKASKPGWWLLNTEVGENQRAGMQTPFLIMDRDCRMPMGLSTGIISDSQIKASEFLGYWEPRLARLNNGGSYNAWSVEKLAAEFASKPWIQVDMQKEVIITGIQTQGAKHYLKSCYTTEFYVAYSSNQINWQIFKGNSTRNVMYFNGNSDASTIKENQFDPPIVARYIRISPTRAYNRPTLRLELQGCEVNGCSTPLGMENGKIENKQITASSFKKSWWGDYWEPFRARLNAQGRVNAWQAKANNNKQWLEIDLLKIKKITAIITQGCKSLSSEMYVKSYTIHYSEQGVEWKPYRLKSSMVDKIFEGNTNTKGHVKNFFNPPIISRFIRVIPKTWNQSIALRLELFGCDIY
Text: as §1

[7] = tested on: patients; experiment: Human use, case histories; format: in vivo
Text: To evaluate the effect of sodium bisulphite in human use (this agent being known to be safe for human consumption), certain patients received this agent. The case history and observations are summarized individually below.
In each case, each patient was provided with a bottle of Solution D, unless otherwise noted, and was instructed to dose himself (or herself, as the case may be) from the bottle so provided at the rate of seven drops to be taken orally with each of his (her) three daily meals. When the contents of one such bottle were thus gradually consumed by an individual patient, another was provided.

[8] = PT of coded and various agents, Example 6; format: biochemical
Text: as §2, §3, §4

[9] = molecular target: T3, F VII (Homo sapiens, UniProt P08709); experiment: Factor VII assay, Example 4; format: biochemical; details: for F VII: Control 73
T3 construct: from tissue; host or cells: human plasma
T3 sequence (P08709 61-466): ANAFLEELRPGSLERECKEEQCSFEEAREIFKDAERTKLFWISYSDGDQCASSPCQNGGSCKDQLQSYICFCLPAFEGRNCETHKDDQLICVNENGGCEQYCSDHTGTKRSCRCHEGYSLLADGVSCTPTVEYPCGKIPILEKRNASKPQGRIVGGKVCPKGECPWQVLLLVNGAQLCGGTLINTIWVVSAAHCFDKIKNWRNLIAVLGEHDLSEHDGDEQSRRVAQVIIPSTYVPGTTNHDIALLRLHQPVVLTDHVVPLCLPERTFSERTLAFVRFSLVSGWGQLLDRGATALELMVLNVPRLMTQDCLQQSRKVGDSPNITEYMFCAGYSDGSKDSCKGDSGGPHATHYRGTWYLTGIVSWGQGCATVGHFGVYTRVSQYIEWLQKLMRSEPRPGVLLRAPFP
Text: as §1

[10] = tested on: human platelet-rich plasma; experiment: Platelet aggregometer, technique of Born, human platelet-rich plasma; format: cell-based; details: 1 millimole (mM), ADP, collagen, epinephrine and arachidonic acid
Text: In order to evaluate an antithrombotic effect, it is preferable to withdraw samples of blood from a patient undergoing treatment and measure platelet aggregation. One method is described by Born in Nature 194, pp. 927-929 (1962) and may be used for this purpose, if desired.
That sodium bisulphite is a platelet antiagregatory agent is shown by using a platelet aggregometer based on the technique of Born (above cited).

[11] = tested on: human, rabbit and rat plasma; experiment: PT (prothrombin time) in plasma in vitro, Example 3; format: biochemical
Text: Sodium, potassium and ammonium bisulphites are found to prolong PT and PTT in a dose-related fashion.
The evaluation procedure used is that described in "Human Blood Coagulation, Haemostasis and Thrombosis", edited by Rosemary Biggs, published by Blackwell Scientific Publications, Oxford, England (2nd Edition), pages 670-705, 1976.

[12] = Sodium bisulphite 0.01 mg/ml, solution D
[13] = Sodium bisulphite 0.05 mg/ml, solution D
[14] = Sodium bisulphite 0.1 mg/ml, solution D
[15] = Sodium bisulphite 0.5 mg/ml, solution D
[16] = Sodium bisulphite 1.0 mg/ml, solution D
[17] = Sodium bisulphite 5.0 mg/ml, solution D
[18] = chemical grade sodium bisulphite 0.01 mg/ml
[19] = chemical grade sodium bisulphite 0.05 mg/ml
[20] = chemical grade sodium bisulphite 0.1 mg/ml
[21] = chemical grade sodium bisulphite 0.5 mg/ml
[22] = chemical grade sodium bisulphite 1.0 mg/ml
[23] = chemical grade sodium bisulphite 5.0 mg/ml
[24] = Test sequence A, active agent 0.5/ml, control

## Sodium bisulphite
[1]; [12]
  TT: 12.07 s
[1]; [13]
  TT: 12.10 s
[1]; [14]
  TT: 12.00 s
[1]; [15]
  TT: 13.97 s
[1]; [16]
  TT: 16.08 s
[1]; [17]
  TT: 34.3 s
[1]; [18]
  TT: 12.20 s
[1]; [19]
  TT: 12.30 s
[1]; [20]
  TT: 12.15 s
[1]; [21]
  TT: 14.53 s
[1]; [22]
  TT: 16.23 s
[1]; [23]
  TT: 35.5 s
[2]
  PTT: 114.80 s
[3]
  coagulation of stored blood samples: have not coagulated
[4]; 0.5 mg per ml, human plasma
  effect on Factor X: significant inhibitory effect
[4]; [12]
  F X: 73%
[4]; [13]
  F X: 68%
[4]; [14]
  F X: 66%
[4]; [15]
  F X: 31%
[4]; [16]
  F X: 11%
[4]; [17]
  F X: 3%
[4]; [18]
  F X: 80
[4]; [19]
  F X: 69
[4]; [20]
  F X: 66
[4]; [21]
  F X: 22
[4]; [22]
  F X: 6
[4]; [23]
  F X: 4
[5]
  coagulation of human plasma: completely disrupted
[6]; [12]
  Factor V: 74%
[6]; [13]
  Factor V: 72%
[6]; [14]
  Factor V: 80%
[6]; [15]
  Factor V: 70%
[6]; [16]
  Factor V: 60%
[6]; [17]
  Factor V: 54%
[6]; [18]
  Factor V: 70
[6]; [19]
  Factor V: 68
[6]; [20]
  Factor V: 68
[6]; [21]
  Factor V: 64
[6]; [22]
  Factor V: 66
[6]; [23]
  Factor V: 60
[7]; after about 5 years, before between 200 and 220 mg %
  Case IV: blood cholesterol value: about 144 mg %
[7]; person, Solutions A, B, C or D orally, within 2-3 months
  Case IV: hypertension, arthritis, arrhythmia, haemorrhoids, dyspepsia, cyanotic fingers and toes, malaise (except diabetes): improved
[8]
  PT: 22.42 s
[8]; Table V, coded agents 0.5 mg/ml, Control 12.92
  PT: 23.06 s
[9]; 0.5 mg per ml, human plasma
  effect on Factor VII: significant inhibitory effect
[9]; [12]
  F VII: 67%
[9]; [13]
  F VII: 57%
[9]; [14]
  F VII: 51%
[9]; [15]
  F VII: 23%
[9]; [16]
  F VII: 8%
[9]; [17]
  F VII: 1%
[9]; [18]
  F VII: 62
[9]; [19]
  F VII: 63
[9]; [20]
  F VII: 53
[9]; [21]
  F VII: 17
[9]; [22]
  F VII: 7
[9]; [23]
  F VII: 2
[10]
  platelet aggregation: abolishes platelet aggregation
[11]; 0.5 mg/ml, human, rabbit and rat plasma in vitro, dose-related
  prolongation of PT: significantly prolong
[11]; [24]
  PT (seconds) Exp. 1 A: 22.1 s
  PT (seconds) Exp.2 A: 23.2 s
[11]; Test sequence B, active agent 0.5/ml, control
  PT (seconds) Exp. 1 A: 25.5 s
